Assay results reported in publication PMC4039310 (Molecular Systems Biology, 2013).
“Also recorded” adds a separate entry of the source. Read-outs that look alike come from different tables or passages of the source.

Key:
[1] = system: EGFR and ERK phosphorylation in PC9GR, HCC827 T790M and HCC4006 T790M cells; experiment: Western blotting of signaling changes after 4 h drug treatment; type: cell-based, human
Method: Signaling changes were evaluated by western blotting after 4 h treatment. […] In (E and G), equal protein loading was confirmed by β-actin evaluation.
Immunoprecipitation and protein expression analysis
Whole cell lysates were prepared using ice-cold TNN-HS buffer (50 mM HEPES, pH 8.0, 150
protease inhibitor cocktail). Total cellular proteins were quantified using the Bio-Rad protein
assay. For immunoprecipitation, 600 μg of total protein was incubated with 6 μL of mouse
Biotechnology (Santa Cruz, CA) as the control overnight at 4°C with rotation and then incubated
with protein G-agarose beads (Roche, Indianapolis, IN) for 3 hours at 4°C. Beads were washed
five times with TNN-HS buffer, and immunoprecipitated proteins were eluted from beads with
30 μL of 2X SDS-PAGE sample buffer from Bio-Rad (Hercules, CA) at 95°C for 5 minutes.
pThr202/Tyr204-p44/42 MAPK, AKT, pSer473-AKT, and tSRC from Cell Signaling; GRB2,

[2] = system: patients with leukemia and lung cancer; details: cited from earlier work
[3] = biological target: EGFR wild type (Homo sapiens, UniProt P00533); experiment: In vitro kinase inhibition assay (Millipore KinaseProfiler); type: biochemical; details: wild-type allele; 0.0001 to 1 μM vs DMSO
Method: (§1) In vitro kinase inhibition assays were performed on the Millipore KinaseProfiler™ platform.
(§2) In vitro kinase assays were conducted using Merck Millipore's KinaseProfiler service according to the protocols detailed at http://www.millipore.com/techpublications/tech1/pf3036.
(§3) Human Phospho-kinase array assay
(§4) PC9 and PC9GR cells were infected with lentivirus expressing shRNA against ARHG5 or scrambled shRNA as control for 48 hours. The relative levels of phosphorylation of 46 kinase phosphorylation sites determination was performed using Human Phospho-Kinase Array Kit (R&D Systems, Minneapolis, MN). Briefly, two-hundred micrograms of total cell lysate protein were incubated with Phospho-Kinase array membranes overnight at 4 C. Detection of proteins was accomplished using the Detection Antibody Cocktail and enhanced […]

[4] = biological target: T1, EGFR L858R (Homo sapiens, UniProt P00533, L858R); experiment: as above; type: biochemical; details: activating point mutation L858R; 0.0001 to 1 μM vs DMSO
T1 construct: purchased Merck Millipore (KinaseProfiler service)
Method: as §1, §2, §3, §4

[5] = system: proteins in total cell lysates of PC9GR cells; experiment: Midostaurin affinity chromatography (drug pulldown) with LC-MS/MS, PC9GR lysate; type: binding, human; details: PC9 and PC9GR lysates
Method: (§5) LC-MS/MS analysis was performed in duplicate on a LTQ-Orbitrap MS (Thermo Fisher).
(§6) RNA isolated from PC9 and PC9GR cells were infected with either ARHG5 shRNA or scrambled shRNA and cDNA transcription using RNeasy Mini kit and QuantiTect Reverse Transcription kit from Qiagen (Valencia, CA). Human ARHG5 probe and human 18s rRNA endogenous control were purchased from Applied Biosystems (Foster City, CA). Quantitative real-time PCR reactions were run in triplicate on MicroAmp® Optical 96-well reaction plates with barcode using the 7900HT Fast real-time PCR system, and data were analyzed with 2.3 SDS software and normalized by 18s endogenous control. […]
(§7) aminomethylbenzoic acid in the presence of HATU and diisopropylethylamine and subsequent […]
(§8) on NHS-activated Sepharose 4 Fast Flow resin (GE Healthcare Bio-Sciences AB, Uppsala, […]
(§9) Affinity chromatography was performed as reported previously with total cell lysates of PC9 and PC9GR cells containing each 5.5 mg of protein.
(§10) Eluates were loaded on a SDS-PAGE gel, briefly run into the gel, and excised as a single piece before in-gel trypsin digestion and sample processing, which was done as described (Rix et al, LC-MS/MS analysis was performed in duplicate on a LTQ-Orbitrap MS (Thermo Fisher). […]
(§11) searching with the Mascot (Matrix Science) and Sequest (Thermo Fisher) search engines.
(§12) Kinase inhibition analysis […]

[6] = biological target: T2, proteins in total cell lysates of PC9GR cells (Homo sapiens, UniProt P00533, DEL746-750/T790M); experiment: as above; type: binding; details: PC9GR lysate, E746-A750+T790M EGFR
T2 construct: endogenous in cells; host or cells: PC9GR
Method: as §5, §6, §7, §8, §9, §10, §11, §12

[7] = biological target: proteins in total cell lysates of PC9 cells (Homo sapiens, UniProt P00533, DEL746-750); experiment: Midostaurin affinity chromatography (drug pulldown) with LC-MS/MS, PC9 lysate; type: binding
Method: as §5, §6, §7, §8, §9, §10, §11, §12

[8] = system: HCC4006ER cells
Method: (§13) The ON-TARGET plus Smart pool custom siRNA library included siRNA pools containing four different siRNAs. This custom library and the ON-TARGET plus Non-Targeting Pool, non-targeting siRNA #4, and GAPD control siRNA pool were purchased from Thermo Scientific (Dharmacon). siRNA was delivered in triplicate to each well using a Precision^TM microplate liquid handler (BioTek). Plates were incubated for 5 days for cell viability assay and for 48 h for the pERK and pAKT in-cell western analyses. […] Viability and signaling changes were determined for each target gene after normalization on ON-TARGET plus Non-Targeting pool control siRNA. […]
(§14) The cell viability assay (CellTiter-Glo) was conducted according to the recommendations for the CellTiter-Glo Luminescent Cell Viability Assay from Promega (Madison, WI). Cells were plated […]
(§15) and either transfected with siRNA or infected with […] of lentiviruses plus 6 µg/mL polybrene (Sigma) for 5 days. Cell-Titer Glo reagent was added to each well, and luminescence was recorded using Victor plate reader from PerkinElmer (Walthom, MA). […]

[9] = system: HCC4006 cells
Method: as §13, §14, §15

[10] = system: PC9 cells
Method: as §13, §14, §15

[11] = system: HCC827ER cells
Method: as §13, §14, §15

[12] = system: HCC827 cells
Method: as §13, §14, §15

[13] = system: PC9GR cells
Method: as §13, §14, §15

For `C[C@]12O[C@H](C[C@]1(O)CO)n1c3ccccc3c3c4c(c5c6ccccc6n2c5c31)CNC4=O` [CEP-701, lestaurtinib], the “effects on EGFR and downstream ERK phosphorylation” value (“effects” below) [1] is listed as “little to modest effects; also recorded: reductions in ERK phosphorylation at concentrations below those necessary for inhibition of EGFR phosphorylation” and the tolerability ([2]; leukemia, ref Marshall et al, 2005) is listed as “good tolerability”.
With `C#Cc1cccc(Nc2ncnc3cc(OCCOC)c(OCCOC)cc23)c1` [Erlotinib, erlotinib] the “effects” value [1] was “modest effects”.
For `CO[C@@H]1[C@H](N(C)C(=O)c2ccccc2)C[C@H]2O[C@]1(C)n1c3ccccc3c3c4c(c5c6ccccc6n2c5c31)C(=O)NC4` [Midostaurin, midostaurin], the “effect on EGFR kinase activity” value [3] was “no substantial effect”, the “effect on EGFR kinase activity” value [4] was “no substantial effect” and the “effects” value ([1]; western blotting after 4 h, three T790M EGFR cell lines) was “modest effects”. The “protein kinases observed in total in midostaurin pulldown” value [5] was 71, the “EGFR binding to immobilized midostaurin” value [6] was “EGFR bound to midostaurin” and the tolerability ([2]; patients with leukemia and lung cancer, ref Monnerat et al, 2004, Fischer et al, 2010) was “well tolerated”. The “EGFR binding to immobilized midostaurin” value [7] was “no EGFR associated with midostaurin”.
In the case of TITIN, the “HCC4006ER_Viability Viability %” value [8] is reported as 71.94%, the “HCC4006_Viability Viability %” value [9] is reported as 63.88% and the “PC9_Viability Viability %” value [10] is reported as 69.56%. For the same molecule, the “HCC827ER_Viability Viability %” value [11] was 73.41%, the “HCC827_Viability Viability %” value [12] was 67.29% and the “PC9GR_Viability Viability %” value [13] was 62.56%.
